Results taken from PubChem BioAssay (NCI).
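Grown in 96-well plates, cells were treated for 48 hours with each compound at five concentrations. Insufficient inhibition: endpoint recorded as highest concentration tested. TGI marks complete inhibition of growth.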

Columns and labels:
Test in all cases: inhibition of tumour cell growth, NCI panel, 48 h
DU-145 prostate = test system: DU-145 prostate
SF-295 CNS = test system: SF-295 CNS
MDA-N = test system: MDA-N
HT29 colon = test system: HT29 colon
UACC-62 melanoma = test system: UACC-62 melanoma
UACC-257 melanoma = test system: UACC-257 melanoma
SK-MEL-5 melanoma = test system: SK-MEL-5 melanoma
SNB-19 CNS = test system: SNB-19 CNS
K-562 leukemia = test system: K-562 leukemia
HOP-62 NSCLC = test system: HOP-62 NSCLC
HCT-116 colon = test system: HCT-116 colon
SNB-75 CNS = test system: SNB-75 CNS
CAKI-1 renal = test system: CAKI-1 renal
SR leukemia = test system: SR leukemia
OVCAR-3 ovarian = test system: OVCAR-3 ovarian
SK-OV-3 ovarian = test system: SK-OV-3 ovarian
786-0 renal = test system: 786-0 renal
SN12C renal = test system: SN12C renal
A549 NSCLC = test system: A549 NSCLC
COLO 205 colon = test system: COLO 205 colon
ACHN renal = test system: ACHN renal
SF-268 CNS = test system: SF-268 CNS
MOLT-4 leukemia = test system: MOLT-4 leukemia
IGROV1 ovarian = test system: IGROV1 ovarian
MDA-MB-231 breast = test system: MDA-MB-231 breast
OVCAR-5 ovarian = test system: OVCAR-5 ovarian
EKVX NSCLC = test system: EKVX NSCLC
CCRF-CEM leukemia = test system: CCRF-CEM leukemia
PC-3 prostate = test system: PC-3 prostate
NCI-H460 lung = test system: NCI-H460 lung
HOP-92 NSCLC = test system: HOP-92 NSCLC
MDA-MB-435 = test system: MDA-MB-435
U251 CNS = test system: U251 CNS
OVCAR-4 ovarian = test system: OVCAR-4 ovarian
NCI-H23 lung = test system: NCI-H23 lung
HS 578T breast = test system: HS 578T breast
NCI-H226 lung = test system: NCI-H226 lung
OVCAR-8 ovarian = test system: OVCAR-8 ovarian
NCI-H522 lung = test system: NCI-H522 lung
HCC-2998 colon = test system: HCC-2998 colon
BT-549 breast = test system: BT-549 breast
KM12 colon = test system: KM12 colon
LOX IMVI melanoma = test system: LOX IMVI melanoma
UO-31 renal = test system: UO-31 renal
M14 melanoma = test system: M14 melanoma
NCI/ADR-RES ovarian = test system: NCI/ADR-RES ovarian
SF-539 CNS = test system: SF-539 CNS
MCF7 breast = test system: MCF7 breast
HCT-15 colon = test system: HCT-15 colon
SW-620 colon = test system: SW-620 colon
SK-MEL-28 melanoma = test system: SK-MEL-28 melanoma
TK-10 renal = test system: TK-10 renal
A498 renal = test system: A498 renal
MALME-3M melanoma = test system: MALME-3M melanoma
HL-60(TB) leukemia = test system: HL-60(TB) leukemia
T-47D breast = test system: T-47D breast
RPMI-8226 leukemia = test system: RPMI-8226 leukemia
SK-MEL-2 melanoma = test system: SK-MEL-2 melanoma

COC(=O)Cc1cccc2c(=O)c(S(=O)(=O)NC(=O)Nc3ccc(Cl)cc3)c(-c3ccccc3)oc12
TGI (DU-145 prostate): > 100 µM | TGI (SF-295 CNS): > 100 µM | TGI (MDA-N): > 100 µM | TGI (HT29 colon): > 100 µM | TGI (UACC-62 melanoma): > 100 µM | TGI (UACC-257 melanoma): > 100 µM | TGI (SK-MEL-5 melanoma): > 100 µM | TGI (SNB-19 CNS): > 100 µM | TGI (K-562 leukemia): > 100 µM | TGI (HOP-62 NSCLC): > 100 µM | TGI (HCT-116 colon): > 100 µM | TGI (SNB-75 CNS): > 100 µM | TGI (CAKI-1 renal): 74.3 µM | TGI (SR leukemia): > 100 µM | TGI (OVCAR-3 ovarian): > 100 µM | TGI (SK-OV-3 ovarian): > 100 µM | TGI (786-0 renal): > 100 µM | TGI (SN12C renal): > 100 µM | TGI (A549 NSCLC): > 100 µM | TGI (COLO 205 colon): > 100 µM | TGI (ACHN renal): 63.5 µM | TGI (SF-268 CNS): > 100 µM | TGI (MOLT-4 leukemia): > 100 µM | TGI (IGROV1 ovarian): > 100 µM | TGI (MDA-MB-231 breast): > 100 µM | TGI (OVCAR-5 ovarian): > 100 µM | TGI (EKVX NSCLC): > 100 µM | TGI (CCRF-CEM leukemia): > 100 µM | TGI (PC-3 prostate): > 100 µM | TGI (NCI-H460 lung): > 100 µM | TGI (HOP-92 NSCLC): > 100 µM | TGI (MDA-MB-435): > 100 µM | TGI (U251 CNS): > 100 µM | TGI (OVCAR-4 ovarian): > 100 µM | TGI (NCI-H23 lung): > 100 µM | TGI (HS 578T breast): > 100 µM | TGI (NCI-H226 lung): > 100 µM | TGI (OVCAR-8 ovarian): > 100 µM | TGI (NCI-H522 lung): 38.6 µM | TGI (HCC-2998 colon): > 100 µM | TGI (BT-549 breast): > 100 µM | TGI (KM12 colon): > 100 µM | TGI (LOX IMVI melanoma): > 100 µM | TGI (UO-31 renal): > 100 µM | TGI (M14 melanoma): > 100 µM | TGI (NCI/ADR-RES ovarian): > 100 µM | TGI (SF-539 CNS): > 100 µM | TGI (MCF7 breast): > 100 µM | TGI (HCT-15 colon): > 100 µM | TGI (SW-620 colon): > 100 µM | TGI (SK-MEL-28 melanoma): > 100 µM | TGI (TK-10 renal): > 100 µM

O=C1CC=C2C3CC4N(CCC45c4ccccc4N1C25)C/C3=C\CO (configuration not stated)
TGI (DU-145 prostate): > 100 µM | TGI (SF-295 CNS): > 100 µM | TGI (MDA-N): > 100 µM | TGI (HT29 colon): > 100 µM | TGI (UACC-62 melanoma): > 100 µM | TGI (A498 renal): > 100 µM | TGI (UACC-257 melanoma): > 100 µM | TGI (SK-MEL-5 melanoma): > 100 µM | TGI (SNB-19 CNS): > 100 µM | TGI (K-562 leukemia): > 100 µM | TGI (HCT-116 colon): > 100 µM | TGI (SNB-75 CNS): > 100 µM | TGI (CAKI-1 renal): > 100 µM | TGI (MALME-3M melanoma): > 100 µM | TGI (OVCAR-3 ovarian): > 100 µM | TGI (SK-OV-3 ovarian): > 100 µM | TGI (786-0 renal): > 100 µM | TGI (SN12C renal): > 100 µM | TGI (A549 NSCLC): > 100 µM | TGI (COLO 205 colon): > 100 µM | TGI (ACHN renal): > 100 µM | TGI (SF-268 CNS): > 100 µM | TGI (MOLT-4 leukemia): > 100 µM | TGI (HL-60(TB) leukemia): > 100 µM | TGI (IGROV1 ovarian): > 100 µM | TGI (MDA-MB-231 breast): > 100 µM | TGI (OVCAR-5 ovarian): > 100 µM | TGI (EKVX NSCLC): > 100 µM | TGI (T-47D breast): > 100 µM | TGI (CCRF-CEM leukemia): > 100 µM | TGI (PC-3 prostate): > 100 µM | TGI (RPMI-8226 leukemia): > 100 µM | TGI (NCI-H460 lung): > 100 µM | TGI (HOP-92 NSCLC): > 100 µM | TGI (MDA-MB-435): > 100 µM | TGI (U251 CNS): > 100 µM | TGI (OVCAR-4 ovarian): > 100 µM | TGI (NCI-H23 lung): > 100 µM | TGI (HS 578T breast): > 100 µM | TGI (SK-MEL-2 melanoma): > 100 µM | TGI (NCI-H226 lung): > 100 µM | TGI (OVCAR-8 ovarian): > 100 µM | TGI (NCI-H522 lung): > 100 µM | TGI (HCC-2998 colon): > 100 µM | TGI (BT-549 breast): > 100 µM | TGI (KM12 colon): > 100 µM | TGI (LOX IMVI melanoma): > 100 µM | TGI (UO-31 renal): > 100 µM | TGI (NCI/ADR-RES ovarian): > 100 µM | TGI (SF-539 CNS): > 100 µM | TGI (MCF7 breast): > 100 µM | TGI (HCT-15 colon): > 100 µM | TGI (SW-620 colon): > 100 µM | TGI (SK-MEL-28 melanoma): > 100 µM | TGI (TK-10 renal): > 100 µM
